Tests used:
Assay in all cases: Bliss interaction score (quartile over a dose matrix) (fitness difference); higher = more antagonism (negative = synergy)
B. subtilis 168 = tested on: B. subtilis 168
How it was run: (§1)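 Fitness was OD595 at entry into stationary phase divided by the plate's robust no-drug mean and capped at 1; single-drug fitness was inferred from combination data. The Bliss score is observed minus expected (product) fitness, summarised by quartiles over technical, biological and donor/recipient replicates.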

S. aureus DSM 20231 = tested on: S. aureus DSM 20231
How it was run: as §1

S. aureus Newman = tested on: S. aureus Newman
How it was run: as §1

S. pneumoniae D39V = tested on: S. pneumoniae D39V
How it was run: as §1
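Also: first quartile when negative (synergy) and third quartile when positive (antagonism).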

| Structure (SMILES) | Bliss interaction score (B. subtilis 168) | Bliss interaction score (S. aureus DSM 20231) | Bliss interaction score (S. aureus Newman) | Bliss interaction score (S. pneumoniae D39V) | Bliss interaction score (B. subtilis 168; main component drawn) | Bliss interaction score (S. aureus DSM 20231; main component drawn) | Bliss interaction score (S. aureus Newman; main component drawn) | Bliss interaction score (S. pneumoniae D39V; main component drawn) |
| --- | --- | --- | --- | --- | --- | --- | --- | --- |
| CC(=O)NC[C@H]1CN(c2ccc(N3CCOCC3)c(F)c2)C(=O)O1 [Linezolid] + CN[C@H](CC(C)C)C(=O)N[C@H]1C(=O)N[C@@H](CC(N)=O)C(=O)N[C@H]2C(=O)N[C@H]3C(=O)N[C@H](C(=O)N[C@H](C(=O)O)c4cc(O)cc(O)c4-c4cc3ccc4O)[C@H](O[C@H]3C[C@](C)(N)[C@@H](O)[C@H](C)O3)c3ccc(c(Cl)c3)Oc3cc2cc(c3O[C@@H]2O[C@H](CO)[C@@H](O)[C@H](O)[C@H]2O[C@H]2C[C@](C)(NCc3ccc(-c4ccc(Cl)cc4)cc3)[C@@H](O)[C@H](C)O2)Oc2ccc(cc2Cl)[C@H]1O [Oritavancin] | 0.0399 | -0.0323 | -0.0463 | 0.0845 | – | – | – | – |
| CO[C@@]12[C@H](COC(N)=O)C3=C(C(=O)C(C)=C(N)C3=O)N1C[C@@H]1N[C@@H]12 [MitomycinC] + CN(C)c1cc(NC(=O)CNC(C)(C)C)c(O)c2c1C[C@H]1C[C@H]3[C@H](N(C)C)C(O)=C(C(N)=O)C(=O)[C@@]3(O)C(O)=C1C2=O [Tigecycline] | 0.245 | 0.0285 | -0.0488 | 0.0464 | – | – | – | – |
| CN[C@H](CC(C)C)C(=O)N[C@H]1C(=O)N[C@@H](CC(N)=O)C(=O)N[C@H]2C(=O)N[C@H]3C(=O)N[C@H](C(=O)N[C@H](C(=O)O)c4cc(O)cc(O)c4-c4cc3ccc4O)[C@H](O[C@H]3C[C@](C)(N)[C@@H](O)[C@H](C)O3)c3ccc(c(Cl)c3)Oc3cc2cc(c3O[C@@H]2O[C@H](CO)[C@@H](O)[C@H](O)[C@H]2O[C@H]2C[C@](C)(NCc3ccc(-c4ccc(Cl)cc4)cc3)[C@@H](O)[C@H](C)O2)Oc2ccc(cc2Cl)[C@H]1O [Oritavancin] + Oc1cc(Cl)ccc1Oc1ccc(Cl)cc1Cl [Triclosan] | 0.0201 | 0.108 | -0.0473 | 0.102 | – | – | – | – |
| CO[C@H]1/C=C/O[C@@]2(C)Oc3c(C)c(O)c4c(O)c(c(/C=N/N5CCN(C)CC5)c(O)c4c3C2=O)NC(=O)/C(C)=C\C=C\[C@H](C)[C@H](O)[C@@H](C)[C@@H](O)[C@@H](C)[C@H](OC(C)=O)[C@@H]1C [Rifampicin] + CCCCCCCCCC(=O)N[C@@H]1[C@H]([C@@H]([C@H](O[C@H]1OC2=C3C=C4C=C2OC5=C(C=C(C=C5)[C@H]([C@H]6C(=O)N[C@@H](C7=C(C(=CC(=C7)O)OC8[C@H]([C@H]([C@@H]([C@H](O8)CO)O)O)O)C9=C(C=CC(=C9)[C@H](C(=O)N6)NC(=O)[C@@H]4NC(=O)[C@@H]1C2=CC(=CC(=C2)OC2=C(C=CC(=C2)[C@H](C(=O)N[C@H](CC2=CC(=C(O3)C=C2)Cl)C(=O)N1)N)O)O)O)C(=O)O)O[C@H]1[C@@H]([C@H]([C@@H]([C@H](O1)CO)O)O)NC(=O)C)Cl)CO)O)O [Teicoplanin] | – | – | – | – | 0.176 | -0.0357 | -0.0536 | 0.0769 |
| CC[C@H]1OC(=O)[C@H](C)[C@@H](O[C@H]2C[C@@](C)(OC)[C@@H](O)[C@H](C)O2)[C@H](C)[C@@H](O[C@@H]2O[C@H](C)C[C@H](N(C)C)[C@H]2O)[C@](C)(O)C[C@@H](C)C(=O)[C@H](C)[C@@H](O)[C@]1(C)O [Erythromycin] + Cc1ncc([N+](=O)[O-])n1CCO [Metronidazole] | -0.0335 | -0.0288 | -0.0396 | 0.0719 | – | – | – | – |
| CO[C@@H]1[C@@H](OC(N)=O)[C@@H](O)[C@H](Oc2ccc3c(O)c(NC(=O)c4ccc(O)c(CC=C(C)C)c4)c(=O)oc3c2C)OC1(C)C [Novobiocin] + CC1(C)S[C@@H]2[C@H](NC(=O)Cc3ccccc3)C(=O)N2[C@H]1C(=O)O [PenicillinG] | 0.0716 | -0.0356 | -0.0408 | -0.0976 | – | – | – | – |
| CC[C@H]1OC(=O)[C@H](C)[C@@H](O[C@H]2C[C@@](C)(OC)[C@@H](O)[C@H](C)O2)[C@H](C)[C@@H](O[C@@H]2O[C@H](C)C[C@H](N(C)C)[C@H]2O)[C@](C)(O)C[C@@H](C)C(=O)[C@H](C)[C@@H](O)[C@]1(C)O [Erythromycin] + CO[C@@H]1[C@@H](OC(N)=O)[C@@H](O)[C@H](Oc2ccc3c(O)c(NC(=O)c4ccc(O)c(CC=C(C)C)c4)c(=O)oc3c2C)OC1(C)C [Novobiocin] | -0.0636 | -0.0443 | 0.0699 | -0.114 | – | – | – | – |
| CC[C@H](C)[C@H](N)C1=N[C@H](C(=O)N[C@@H](CC(C)C)C(=O)N[C@H](CCC(=O)O)C(=O)N[C@H](C(=O)N[C@H]2CCCCNC(=O)[C@H](CC(N)=O)NC(=O)[C@@H](CC(=O)O)NC(=O)[C@H](Cc3cnc[nH]3)NC(=O)[C@@H](Cc3ccccc3)NC(=O)[C@H]([C@@H](C)CC)NC(=O)[C@@H](CCCN)NC2=O)[C@@H](C)CC)CS1 [Bacitracin] + CC(=O)O[C@H]1C[C@@]2(C)[C@@H](C[C@@H](O)[C@H]3[C@@]4(C)CC[C@@H](O)[C@@H](C)[C@@H]4CC[C@@]32C)/C1=C(\CCC=C(C)C)C(=O)O [Fusidic acid] | – | – | – | – | -0.166 | 0.012 | -0.0273 | -0.0749 |
| CN[C@@H]1[C@H](O[C@H]2[C@H](O[C@H]3[C@H](O)[C@@H](O)[C@H](N=C(N)N)[C@@H](O)[C@@H]3N=C(N)N)O[C@@H](C)[C@]2(O)C=O)O[C@@H](CO)[C@H](O)[C@H]1O [Streptomycin] + CC[C@H]1OC(=O)[C@H](C)C(=O)[C@H](C)[C@@H](O[C@@H]2O[C@H](C)C[C@H](N(C)C)[C@H]2O)[C@](C)(OC)C[C@@H](C)C(=O)[C@H](C)[C@H]2N(CCCCn3cnc(-c4cccnc4)c3)C(=O)O[C@]12C [Telithromycin] | 0.0819 | 0.0793 | -0.109 | -0.0487 | – | – | – | – |

Source: the supplement of paper PMC10627819
